This is an account of results in PubChem BioAssay (NCI).

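48-hour exposure; five concentrations; linearly interpolated endpoints. The concentration for full growth arrest is given as TGI.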

Some test systems named below: TK-10 renal; U251 CNS; MCF7 breast; SR leukemia; MDA-N; MDA-MB-435; SW-620 colon; HOP-62 NSCLC; SF-539 CNS; OVCAR-5 ovarian; EKVX NSCLC; CCRF-CEM leukemia; OVCAR-3 ovarian; HT29 colon; SN12C renal; CAKI-1 renal; PC-3 prostate; K-562 leukemia; SNB-19 CNS.
What all share (assay): NCI anticancer screen, dose series, 48 h

Take `COc1c(C)c(C/C=C(\C)CCCCO[Si](C(C)C)(C(C)C)C(C)C)c(OC)c2ccccc12`: the TGI in the test on TK-10 renal, in the test on U251 CNS, with MCF7 breast, with SR leukemia, in the test on MDA-N and with MDA-MB-435 was above 100 µM throughout. Also, the TGI is above 100 µM in the test on SW-620 colon; above 100 µM in the test with HOP-62 NSCLC; above 100 µM with SF-539 CNS; above 100 µM in the test with OVCAR-5 ovarian; above 100 µM in the test with EKVX NSCLC; 89.3 µM in the test with CCRF-CEM leukemia. In addition, the TGI in the test on OVCAR-3 ovarian, in the test with HT29 colon, in the test on SN12C renal, with CAKI-1 renal, in the test with PC-3 prostate and in the test on K-562 leukemia was above 100 µM throughout. The compound also yielded a TGI with SNB-19 CNS above 100 µM.
In the case of `OCC(CN1CCCCC1)(CN1CCCCC1)CN1CCCCC1`, the TGI in the test with TK-10 renal, with U251 CNS, in the test with MCF7 breast, with SR leukemia, in the test with MDA-N and in the test with MDA-MB-435 was above 100 µM each time. The TGI in the test with SW-620 colon, in the test on HOP-62 NSCLC, with SF-539 CNS, in the test with OVCAR-5 ovarian, in the test with EKVX NSCLC and with CCRF-CEM leukemia was above 100 µM in each case. Besides, the TGI in the test on OVCAR-3 ovarian, with HT29 colon, with SN12C renal, in the test with CAKI-1 renal, in the test with PC-3 prostate and with K-562 leukemia was above 100 µM throughout. Also, in the test on SNB-19 CNS, the TGI is above 100 µM.
Take `COC1=C2CC(C)CC(OC)[C@@H](OC(=O)CCN)[C@H](C)/C=C(\C)C(OC(N)=O)C(OC)/C=C\C=C(/C)C(=O)NC(=CC1=O)C2=O` (stereo partly specified): the TGI came to 20.4 µM with TK-10 renal; 6.19 µM in the test with U251 CNS; 2.03 µM with MCF7 breast; 8.71 µM in the test with SR leukemia; 12.7 µM with MDA-N; 6.96 µM in the test with MDA-MB-435. In addition, the TGI in the test on SW-620 colon came to 1.48 µM; in the test on HOP-62 NSCLC it was 15.4 µM; in the test on SF-539 CNS it was 14.9 µM; in the test on OVCAR-5 ovarian it was 21.1 µM; in the test with EKVX NSCLC it was 25 µM; with CCRF-CEM leukemia it was 1.49 µM. Moreover, the TGI in the test with OVCAR-3 ovarian came to 8.19 µM; in the test on HT29 colon, 13.1 µM; in the test with SN12C renal it was 14.2 µM; in the test on CAKI-1 renal, 17.7 µM; in the test on PC-3 prostate, 15.1 µM; with SNB-19 CNS, 20.4 µM.
As to `C=CC(Cl)(CBr)CCC(Br)=C(C)C` (stereo unspecified), the TGI in the test on TK-10 renal is 58.8 µM; with U251 CNS, 30.5 µM; in the test with MCF7 breast it was 31.5 µM; in the test on SR leukemia, above 100 µM; with MDA-N, 40.8 µM; in the test on MDA-MB-435, 46.7 µM. The TGI in the test on SW-620 colon was 29.2 µM; in the test on HOP-62 NSCLC it was above 100 µM; in the test with SF-539 CNS, 44 µM; in the test with OVCAR-5 ovarian it was 61.2 µM; with EKVX NSCLC, above 100 µM; in the test on CCRF-CEM leukemia, above 100 µM. Besides, the TGI was 55.3 µM in the test with OVCAR-3 ovarian; 39.8 µM in the test with HT29 colon; 33 µM with SN12C renal; 21.2 µM with CAKI-1 renal; 52.7 µM in the test with PC-3 prostate; above 100 µM with K-562 leukemia. In the test on SNB-19 CNS, the TGI is above 100 µM.
Take `CC(C)=CCC[C@@H](C)C1=C(O)C(Nc2ccccc2Br)=C(C)C(=O)C1=O`: the TGI in the test with TK-10 renal was 68.2 µM; in the test on U251 CNS, 99.5 µM; in the test with MCF7 breast, 39.7 µM; with SR leukemia it was 45 µM; in the test with MDA-N, 27.5 µM; with MDA-MB-435 it was above 65.7 µM. Moreover, the TGI is 52.1 µM with SW-620 colon; 36.8 µM with HOP-62 NSCLC; 25.1 µM in the test on SF-539 CNS; 41.9 µM in the test with OVCAR-5 ovarian; 48.3 µM in the test on EKVX NSCLC; 12.7 µM with CCRF-CEM leukemia. For the same compound, the TGI is 35.6 µM in the test with OVCAR-3 ovarian; 37 µM in the test on HT29 colon; 28.2 µM in the test with SN12C renal; 52.1 µM in the test on CAKI-1 renal; 38.6 µM in the test on PC-3 prostate; above 69.9 µM with K-562 leukemia. In the test on SNB-19 CNS, this compound returned a TGI of 73 µM.
On to `COc1ccc(NC(=O)CC(=O)N2N=C(N3CCCCC3)CC2c2ccccc2)cc1` (stereo unspecified), for which the TGI with TK-10 renal, in the test with U251 CNS, in the test with MCF7 breast, in the test on SR leukemia, with MDA-N and in the test with MDA-MB-435 was above 100 µM each time. The TGI in the test on SW-620 colon, with HOP-62 NSCLC, with SF-539 CNS, in the test on OVCAR-5 ovarian, with EKVX NSCLC and with CCRF-CEM leukemia was above 100 µM in each case. Further, the TGI in the test on OVCAR-3 ovarian, with HT29 colon, with SN12C renal, with CAKI-1 renal, in the test with PC-3 prostate and in the test with SNB-19 CNS was above 100 µM in each case.
As for `CCCCON1C[C@@H](O)C(O)[C@@H](O)C1` (stereo partly specified), the TGI with TK-10 renal, in the test with U251 CNS, in the test with MCF7 breast, in the test with SR leukemia, in the test on MDA-N and in the test on MDA-MB-435 was above 100 µM throughout. In addition, the TGI in the test with SW-620 colon, with HOP-62 NSCLC, in the test with SF-539 CNS, with OVCAR-5 ovarian, with EKVX NSCLC and with CCRF-CEM leukemia was above 100 µM throughout. The TGI in the test on OVCAR-3 ovarian, in the test with HT29 colon, with SN12C renal, in the test on CAKI-1 renal, with PC-3 prostate and in the test on K-562 leukemia was above 100 µM throughout. The compound also had a TGI in the test on SNB-19 CNS above 100 µM.
